What was measured:
[1] = molecular target: T1, FK-506 binding protein (FKBP) (Homo sapiens, UniProt P62942); test: Inhibition of PPIase (rotamase) enzyme activity of FKBP (apparent Ki); type: biochemical; conditions: substrate N-succinylAla-Ala-Pro-Phe-p-nitroanilide, chymotrypsin-coupled
Outline: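 Apparent Ki was estimated by analysing first-order rate constants versus inhibitor concentration. Substrate N-succinyl-Ala-Ala-Pro-Phe-p-nitroanilide isomerization was read spectrophotometrically, with chymotrypsin cleaving 4-nitroanilide from the trans form only.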

[2] = tested on: human peripheral blood lymphocytes; test: Mitogenesis assay PMA: inhibition of proliferation of human PBLs; type: cell-based; conditions: Lymphocyte, PMA (10 ng/ml) plus ionomycin (250 ng/ml), 48 h incubation
Outline: (§1)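 Human PBLs from normal donors, isolated over Histopaque 1077 and cultured in RPMI 1640 with 10% heat-inactivated FCS, were stimulated with PMA or OKT3 mitogen in the presence of compound (DMSO stocks). After 48 h at 37 °C and 5% CO2, cells were pulsed with 1 μCi ³H-thymidine and harvested 24 h later for scintillation counting.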

[3] = tested on: human peripheral blood lymphocytes; test: Mitogenesis assay OKT3: inhibition of proliferation of human PBLs; type: cell-based; conditions: Lymphocyte, OKT3 (10^-4 dilution final), 48 h incubation
Outline: as §1

[4] = molecular target: T1, FK-506 binding protein (FKBP); test: Competitive binding to FKBP against [3H]dihydro-FK-506 (apparent Kd); conditions: competition with [3H]dihydro-FK-506
[5] = tested on: PBLs stimulated with JVM human viral transformed B lymphoblastoid cells; test: MLR bioassay JVM: inhibition of proliferation in mixed lymphocyte reaction; type: cell-based; conditions: Lymphoblastoid cell, pulsed on day 6, harvested 24 h later
Outline: (§2)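 Fresh human PBLs (5×10^4) stimulated with 5×10^3 Mitomycin C-treated allogeneic EBV-transformed B lymphoblastoid cells in RPMI 1640 with 10% FCS, with or without compound (DMSO stocks). Pulsed on day 6, harvested 24 h later and counted.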

[6] = tested on: PBLs stimulated with LB human viral transformed B lymphoblastoid cells; test: MLR bioassay LB: inhibition of proliferation in mixed lymphocyte reaction; type: cell-based; conditions: Lymphoblastoid cell, pulsed on day 6, harvested 24 h later
Outline: as §2

IL-2 production = conditions: in vitro; cited from earlier work
CTLL cells = test: CTLL Proliferation + IL-2 (Table 5, assay 4); type: cell-based, murine; conditions: for IC50: Mus musculus, CTLL, exogenous IL-2, [3H]TdR incorporation
Procedure: 4) Assay according to DuMont, F. et al., J. Immunol. 144:251-258 (1990). The assay measures the stimulation of CTLL cells in response to IL-2. Proliferation is measured by incorpoation of (^3 H)TdR. […] In this assay, exogenous IL-2 is provided to overcome this block.
Fresh peripheral blood lymphocytes (PBLs) from LeukoPak cells or whole blood from random normal blood donors (tested HIV-negative and hepatitis negative) are isolated and separated by density centrifugation over Histopaque 1077 (Sigma Chemical Co., St. Louis, Mo.). The murine CTLL cytotoxic T cell line and the human Jurkat T cell line are from ATCC (CTLL-2 ATCC TIB214, JURKAT CLONE E6-1 ATCC TIBl52). The human allogeneic B cell lines used for activation of the fresh PBLs are EBV-transformed lymphocytes from normal healthy adult donors with two completely different HLAhaplotypes. All cell lines were routinely tested for the presence of Mycolasma contamination using the GibcoMycotect test kit and are Mycolasma-free. Culture medium consksts of RPMI 1640 (Gibco, Grand Island, N.Y.) containing penicillin (50 U/ml) and streptomycin (50 μg/ml), L-glutamine 2 mM, 2 mercaptoethanol (5×10^-5), 10% heat-inactivated FCS and 10 mM HEPES.

binding protein (FKBP) = conditions: cited from earlier work
[7] = tested on: T-cell clone stimulated with antibody to TCR and CD2; test: T-Cell Hybridoma + TCR/CD2 proliferation (Table 5, assay 2); type: cell-based; conditions: [3H]TdR incorporation, estimated
Procedure: 2) Assay similar to above, but using T-cell clone stimulated with antibody to the T-cell receptor (TCR) and antibody to CD2. Stimulation is measured by incorporation of radioactive thymidine [(^3 H)TdR] into proliferating cells, with an uninhibited control signal of 23,000 cpm. IC50 values are estimated from inhibitions of proliferation observed at various drug concentrations.

T-cell hybridoma = test: Apoptosis: activation-induced (anti-CD3) cell death in T-cell hybridoma (Table 5, assay 3); type: cell-based; conditions: for Apoptosis (activation-induced cell death): at 1 μg/ml
From the text: 3) Assay according to Shi, Y. et al., Nature 339:625-626 (1989). The assay uses a T-cell hybridoma similar to that described. The assay measures activation-induced (anti-CD3) cell death (evaluated by counting viable cells after staining as described) in a T-cell hybridoma that mimics the effect known to occur in immature thymocytes.

PPIase = conditions: cited from earlier work
mixed lymphocyte culture = conditions: in vitro; cited from earlier work
CTLLs = conditions: cited from earlier work
[8] = tested on: human peripheral blood lymphocytes; test: Human PBL + OKT3 proliferation (Table 5, assay 1); type: cell-based; conditions: Lymphocyte, [3H]TdR incorporation, estimated
Procedure: 1) Assay similar to Yoshimura, N. et al., Transplantation 47:356-359 (1989). Assay uses fresh human peripheral blood lymphocytes isolated by Ficoll-Hypaque density centrifugation, stimulated bythe OKT3 antibody (anti-CD3) which stimulates via interaction with CD3. Stimulation is measured by incorporation of radioactive thymidine [(^3 H)TdR] into proliferating cells, with an uninhibited control signal of 48,000-75,000 cpm. IC50 values are estimated from inhibitions of proliferation observed at various drug concentrations.

cytotoxic T-cell = conditions: in vitro; cited from earlier work

T1 sequence (P62942 whole entry): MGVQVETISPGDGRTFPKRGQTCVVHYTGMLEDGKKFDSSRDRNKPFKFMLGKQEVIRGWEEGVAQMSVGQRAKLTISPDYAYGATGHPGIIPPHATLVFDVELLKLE

Structure (SMILES) | Ki [1] [µM] | Kd [4] [µM] | IC50 [2] [µM] | IC50 [3] [µM] | IC50 [5] [µM] | IC50 [6] [µM] | inhibition of IL-2 production, concentration relative to cyclosporin A (IL-2 production) | IC50 (CTLL cells) [µg/mL] | binding to FKBP (binding protein (FKBP)) | IC50 [7] [µg/mL] | activity in activation-induced cell death assay (in words) (T-cell hybridoma) | Apoptosis (activation-induced cell death) (T-cell hybridoma) | inhibition of PPIase activity (PPIase) | inhibition of mixed lymphocyte culture response, concentration relative to cyclosporin A (mixed lymphocyte culture) | IL-2 dependent proliferation of the CTLLs (CTLLs) | IC50 [8] [µg/mL] | inhibition of cytotoxic T-cell generation, concentration relative to cyclosporin A (cytotoxic T-cell) | activity in CTLL / IL-2 assay (in words) (CTLL cells)
C=CCOC(=O)Nc1ccc(CCCOC(=O)[C@@H]2CCCCN2C(=O)C(=O)c2cc(OC)c(OC)c(OC)c2)cc1 [Compound 88] | 0.011 | 0.07 | 2.2 | 2.2 | 4.5 | 2.5 | – | – | – | – | – | – | – | – | – | – | – | –
COc1ccc(C=CCCOC(=O)[C@@H]2CCCCN2C(=O)C(=O)c2cc(OC)c(OC)c(OC)c2)cc1 [Compound 90] | 0.011 | 0.6 | 8 | > 10 | > 10 | > 10 | – | – | – | – | – | – | – | – | – | – | – | –
C=CC[C@@H]1/C=C(\C)C[C@H](C)C[C@H](OC)[C@H]2O[C@@](O)(C(=O)C(=O)N3CCCC[C@H]3C(=O)O[C@H](/C(C)=C/[C@@H]3CC[C@@H](O)[C@H](OC)C3)[C@H](C)[C@@H](O)CC1=O)[C@H](C)C[C@@H]2OC [FK-506] | – | – | – | – | – | – | 100 times lower concentration than cyclosporin A | > 1 | binds to a binding protein (FKBP) distinct from cyclophilin | < 1 | inhibit this cell death | Blocks | inhibits PPIase activity | 100 times lower concentration than cyclosporin A | do not | < 1 | 100 times lower concentration than cyclosporin A | –
CO[C@H]1C[C@@H]2CC[C@@H](C)[C@@](O)(O2)C(=O)C(=O)N2CCCC[C@H]2C(=O)O[C@H]([C@H](C)C[C@@H]2CC[C@@H](O)[C@H](OC)C2)CC(=O)[C@H](C)/C=C(\C)[C@@H](O)[C@@H](OC)C(=O)[C@H](C)C[C@H](C)/C=C/C=C/C=C/1C [Rapamycin] | – | – | – | – | – | – | – | ~0.01 | – | < 1 | inactive | Inactive | – | – | inhibits IL-2 dependent proliferation of the CTLLs | < 1 | – | active

More lines, main results first:

Ki [1] [µM] | Kd [4] [µM] | Structure (SMILES) | IC50 [2] [µM] | IC50 [3] [µM] | IC50 [5] [µM] | IC50 [6] [µM] | inhibition of IL-2 production, concentration relative to cyclosporin A (IL-2 production) | IC50 (CTLL cells) [µg/mL] | binding to FKBP (binding protein (FKBP)) | IC50 [7] [µg/mL] | activity in activation-induced cell death assay (in words) (T-cell hybridoma) | Apoptosis (activation-induced cell death) (T-cell hybridoma) | inhibition of PPIase activity (PPIase) | inhibition of mixed lymphocyte culture response, concentration relative to cyclosporin A (mixed lymphocyte culture) | IL-2 dependent proliferation of the CTLLs (CTLLs) | IC50 [8] [µg/mL] | inhibition of cytotoxic T-cell generation, concentration relative to cyclosporin A (cytotoxic T-cell) | activity in CTLL / IL-2 assay (in words) (CTLL cells)
0.015 | 0.06 | COc1cc(C(=O)C(=O)N2CCCC[C@H]2C(=O)OCCCc2cn(C=O)c3ccccc23)cc(OC)c1OC [Compound 93] | 6 | 7 | 8.7 | 10 | – | – | – | – | – | – | – | – | – | – | – | –
0.016 | 0.05 | COc1cc(C(=O)C(=O)N2CCCC[C@H]2C(=O)OCCCCc2c[nH]c3ccccc23)cc(OC)c1OC [Compound 94] | 5 | 5.5 | 7 | > 10 | – | – | – | – | – | – | – | – | – | – | – | –
0.04 | 0.033 | O=C(C(=O)N1CCCC[C@H]1C(=O)OCCCCc1ccccc1)c1cccc(-c2ccccc2)c1 [Compound 96] | > 10 | > 10 | > 10 | > 10 | – | – | – | – | – | – | – | – | – | – | – | –
0.08 | 0.18 | O=C(C(=O)N1CCCC[C@H]1C(=O)OCCCCc1ccccc1)C1CCCCC1 [Compound 98] | > 10 | > 10 | > 10 | > 10 | – | – | – | – | – | – | – | – | – | – | – | –

From patent publication US5516797A, “Immunosuppressive compounds” (Vertex Pharmaceuticals, Incorporated, priority 1994, dated 1996)
